Test results from patent publication US9505772B2, “Aromatic ring compound” (TAKEDA PHARMACEUTICAL COMPANY LIMITED, priority 2012, dated 2016).

How the values were obtained:
human MCHR1 [1] = target: T1, human MCHR1 (Homo sapiens, UniProt Q99705); assay: Human MCH receptor 1 (MCHR1) binding inhibitory activity, binding assay with [125I]-MCH(4-19); details: test compound 0.1 μM, human MCHR1-expressing CHO cell membrane fraction, read-out: Binding inhibition rate % (0.1 μM)
T1 construct: expressed in transfected cells; host or cells: CHO cell clone 57 (described in WO01/82925); membrane fraction
Protocol: Determination of Human MCH Receptor 1 (MCHR1) Binding Inhibitory Activity of Test Compound Using Binding Assay
1. Preparation of Membrane Fraction
Using human MCHR1(=SLC-1 receptor)-expressing CHO cell clone 57 described in WO01/82925, MCHR1-expressing CHO cellular membrane fractions were prepared by the following method.
In phosphate buffered saline (pH 7.4) supplemented with 5 mM EDTA (ethylenediaminetetraacetic acid) were respectively suspended human MCHR1-expressing CHO cells (1×10^8 cells) and centrifuged. Homogenate buffer (10 mL, 10 mM NaHCO3, 5 mM EDTA, pH 7.5, 0.5 mM PMSF (phenylmethylsulfonyl fluoride), 20 mg/L leupeptin, 4 mg/L E-64, 1 mg/L pepstatin A) was added to the pellets of the cells and, using Polytron Homogenizer, the mixture was homogenated. The supernatant obtained after centrifugation at 400×g for 10 min was further centrifuged at 100,000×g for 1 hr to give precipitate of the membrane fraction. The precipitate were suspended in 2 mL of assay buffer [20 mM Tris-HCl (pH 7.5), 5 mM EDTA, 0.5 mM PMSF, 20 mg/L leupeptin, 4 mg/L E-64, 1 mg/L pepstatin A]. The membrane fractions were suspended in assay buffer to a protein concentration of 2 mg/mL, and after dispensing, preserved at −80° C. and used upon thawing each time when in use.
The MCHR1 ligand binding inhibitory activity of the test compound was determined as follows.
An MCHR1-expressing CHO cellular membrane fraction (173 μL) diluted with an assay buffer was dispensed to a 96 well polypropylene plate (3363, Corning). DMSO solution (2 μL), 33 μM cold MCH(1-19) diluted with DMSO solution (2 μL), or a test compound solution diluted with DMSO solution to various concentrations (2 μL) was added, and lastly, [^125I]-MCH(4-19) diluted with assay buffer (hereinafter, sometimes to be referred to as “hot MCH”, 25 μL) was added to each well. The mixture was reacted with stirring at room temperature for 1 hr, and the plate was set on FilterMate Harvester (PerkinElmer). Using a treating glass filter plate (GF/C, PerkinElmer) with polyethyleneimine, which had been previously set, the plate was suction-filtered and washed three times with washing buffer (50 mM Tris-HCl buffer pH 7.5). The glass filter plate was dried, MicroScinti0 (PerkinElmer) was added at 25 μL/well, and the resulting radioactivity was measured by TopCount liquid scintillation counter (PerkinElmer). The binding inhibition rate of the test compound was calculated by the following formula. Binding inhibition (%)=100−(radioactivity upon addition of test compound and hot MCH−radioactivity upon addition of cold MCH and hot MCH solution)/(radioactivity upon addition of DMSO solution and hot MCH−radioactivity upon addition of cold MCH and hot MCH solution)×100
The binding inhibition rates (%) of test compounds (0.1 μM) as measured using human MCHR1-expressing CHO cell are shown in Table 2.

human MCHR1 [2] = target: T1, human MCHR1; assay: MCH receptor 1 antagonistic activity, Ca2+ mobilization assay; format: cell-based; details: test compound 0.1 μM; human MCHR1-expressing CHO cells (clone #4); MCH(4-19) 2 nM; read-out: Inhibition rate % (0.1 μM)
Protocol: Measurement of MCH Receptor 1 Antagonistic Activity of Test Compound Using Ca^2+ Mobilization Assay
Using an expression vector plasmid introduced with human MCHR1 gene for expression in animal cells, human MCHR1 gene was introduced into CHO cells (CHO dhfr^−) by Lipofectamine LTX (Invitrogen). The cells were cultured in selection MEMα medium [445 mL of MEMα medium without nucleic acid and added with 5 mL of Penicillin-Streptomycin (Invitrogen) and 50 mL of dialyzed fetal bovine serum]. Colony 24 clones grown in the selection medium, which were human MCHR1 gene-expressing CHO cell candidates, were selected. […] In the following test, this human MCHR1-expressing CHO cell (clone #4) was used. An integrated dispensing function fluorometer (CellLux, PerkinElmer) was used for Ca^2+ mobilization assay. The CHO cells were sown in a 96 well plate (type 3904, Corning) with a black wall and clear well bottom at a density of 20000 cells/well, and cultured in an incubator for about 24 hr at 5% CO2, 37° C. The medium was removed, and the cells were washed with phosphate buffered saline (PBS). A Ca^2+ indicator dye reagent (DOJINDO LABORATORIES, Ca screening no-wash kit Fluo4) was added at 100 μL/well, and the dye was allowed to penetrate into the cell for 30 min in an incubator at 5% CO2, 37° C. The plate was set on a plate reader. First, a test compound solution diluted with an assay buffer [10 mM HEPES (pH 7.4), 1× assay buffer containing 0.1% BSA (DOJINDO LABORATORIES, attached to Ca screening no-wash kit Fluo4)] or DMSO solution was added at 50 μL/well, and then ligand MCH (4-19) peptide (final concentration 2 nM) diluted with assay buffer or DMSO was added at 50 μL/well, during which changes in intracellular fluorescence were measured at 2 second intervals. The antagonistic activity of the test compound was calculated by the following formula and shown as an inhibition rate (%) wherein the intracellular fluorescence activity resulting from the stimulation by the addition of ligand MCH (4-19) peptide was 100% and that of the well added with DMSO solution alone was 0%. inhibitory rate (%)=100−[fluorescence activity upon addition of test compound and MCH(4-19) peptide solution−fluorescence activity upon addition of DMSO solution only]/[fluorescence activity upon addition of DMSO solution and MCH(4-19) peptide solution−fluorescence activity upon addition of DMSO solution only]×100
The inhibition rates (%) of test compounds (0.1 μM) as antagonist activity measured using human MCHR1-expressing CHO cells (clone #4) are shown in the following Table 3.

T1 sequence (Q99705 whole entry): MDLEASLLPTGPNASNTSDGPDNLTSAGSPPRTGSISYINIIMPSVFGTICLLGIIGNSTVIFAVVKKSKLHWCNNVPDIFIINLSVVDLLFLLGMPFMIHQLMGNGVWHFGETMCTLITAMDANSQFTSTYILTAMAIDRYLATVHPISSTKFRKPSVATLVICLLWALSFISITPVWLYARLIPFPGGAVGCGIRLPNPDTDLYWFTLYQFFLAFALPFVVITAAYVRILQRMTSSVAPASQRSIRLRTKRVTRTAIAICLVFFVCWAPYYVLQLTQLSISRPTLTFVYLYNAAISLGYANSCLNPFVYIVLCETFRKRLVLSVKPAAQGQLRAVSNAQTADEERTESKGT

inhibition at 0.1 µM (human MCHR1 [1])	inhibition at 0.1 µM (human MCHR1 [2])	Compound
81%	94%	COc1ccc(-n2ccc3oc(-c4ccc(Cl)cc4)cc3c2=O)cc1OC [Example 2, 2-(4-Chlorophenyl)-5-(3,4-dimethoxyphenyl)furo[3,2-c]pyridin-4(5H)-one]
97%	100%	COc1cc(-n2ccc3oc(-c4ccc(Cl)cc4)cc3c2=O)ccc1OCC1(C#N)CC1 [Example 5, 1-((4-(2-(4-Chlorophenyl)-4-oxofuro[3,2-c]pyridin-5(4H)-yl)-2-methoxyphenoxy)methyl)cyclopropanecarbonitrile]
82%	37%	COc1cc(-n2cnc3oc(-c4ccc(Cl)cc4)cc3c2=O)ccc1OCC1(C#N)CC1 [Example 6, 1-((4-(6-(4-Chlorophenyl)-4-oxofuro[2,3-d]pyrimidin-3(4H)-yl)-2-methoxyphenoxy)methyl)cyclopropanecarbonitrile]
97%	106%	COc1cc(-n2ccc3oc(-c4ccc(Cl)cc4)cc3c2=O)ccc1OCC(C)(C)O [Example 7, 2-(4-Chlorophenyl)-5-(4-(2-hydroxy-2-methylpropoxy)-3-methoxyphenyl)furo[3,2-c]pyridin-4(5H)-one]
76%	–	N#CC1(COc2ccc(-n3ccc4oc(-c5ccc(Cl)cc5)cc4c3=O)cc2Cl)CC1 [Example 8, 1-((2-Chloro-4-(2-(4-chlorophenyl)-4-oxofuro[3,2-c]pyridin-5(4H)-yl)phenoxy)methyl)cyclopropanecarbonitrile]
83%	86%	COc1cc(-n2ccc3oc(-c4ccc(F)cc4)cc3c2=O)ccc1OCC1(C#N)CC1 [Example 10, 1-((4-(2-(4-Fluorophenyl)-4-oxofuro[3,2-c]pyridin-5(4H)-yl)-2-methoxyphenoxy)methyl)cyclopropanecarbonitrile]
53%	64%	COc1cc(-n2ccc3oc(-c4ccc(Cl)s4)cc3c2=O)ccc1OCC1(C#N)CC1 [Example 12, 1-((4-(2-(5-Chloro-2-thienyl)-4-oxofuro[3,2-c]pyridin-5(4H)-yl)-2-methoxyphenoxy)methyl)cyclopropanecarbonitrile]
17%	–	COc1cc(-n2ccc3oc(-c4ccccc4F)cc3c2=O)ccc1OCC1(C#N)CC1 [Example 15, 1-((4-(2-(2-Fluorophenyl)-4-oxofuro[3,2-c]pyridin-5(4H)-yl)-2-methoxyphenoxy)methyl)cyclopropanecarbonitrile]
79%	97%	COc1ccc(-c2cc3c(=O)n(-c4ccc(OCC5(C#N)CC5)c(OC)c4)ccc3o2)cc1 [Example 16, 1-((2-Methoxy-4-(2-(4-methoxyphenyl)-4-oxofuro[3,2-c]pyridin-5(4H)-yl)phenoxy)methyl)cyclopropanecarbonitrile]
77%	88%	COc1cc(-n2ccc3oc(-c4ccc(Cl)cn4)cc3c2=O)ccc1OCC1(C#N)CC1 [Example 19, 1-((4-(2-(5-Chloropyridin-2-yl)-4-oxofuro[3,2-c]pyridin-5(4H)-yl)-2-methoxyphenoxy)methyl)cyclopropanecarbonitrile]
58%	–	COc1cc(-n2ccc3oc(-c4ccccc4)cc3c2=O)ccc1OCC1(C#N)CC1 [Example 20, 1-((2-Methoxy-4-(4-oxo-2-phenylfuro[3,2-c]pyridin-5(4H)-yl)phenoxy)methyl)cyclopropanecarbonitrile]
42%	–	COc1cc(-n2ccc3oc(-c4ccc(F)cn4)cc3c2=O)ccc1OCC1(C#N)CC1 [Example 21, 1-((4-(2-(5-Fluoropyridin-2-yl)-4-oxofuro[3,2-c]pyridin-5(4H)-yl)-2-methoxyphenoxy)methyl)cyclopropanecarbonitrile]
73%	72%	COc1cc(-n2ccc3oc(-c4ccc(Cl)cc4)cc3c2=O)cnc1OCC1(C#N)CC1 [Example 23, 1-(((5-(2-(4-Chlorophenyl)-4-oxofuro[3,2-c]pyridin-5(4H)-yl)-3-methoxypyridin-2-yl)oxy)methyl)cyclopropanecarbonitrile]
47%	–	COC(=O)c1ccc(-n2ccc3oc(-c4ccc(Cl)cc4)cc3c2=O)cc1OC [Example 24, Methyl 4-(2-(4-chlorophenyl)-4-oxofuro[3,2-c]pyridin-5(4H)-yl)-2-methoxybenzoate]
60%	–	COc1cc(-n2ccc3oc(-c4ccc(C(F)(F)F)cc4)cc3c2=O)ccc1OCC1(C#N)CC1 [Example 27, 1-((2-Methoxy-4-(4-oxo-2-(4-(trifluoromethyl)phenyl)furo[3,2-c]pyridin-5(4H)-yl)phenoxy)methyl)cyclopropanecarbonitrile]
66%	–	COc1cc(-n2ccc3oc(-c4ccc(Cl)cc4)cc3c2=O)ccc1O [Example 30, 2-(4-Chlorophenyl)-5-(4-hydroxy-3-methoxyphenyl)furo[3,2-c]pyridin-4(5H)-one]
74%	–	COc1cc(-n2ccc3oc(-c4ccc(Cl)cc4)cc3c2=O)ccc1C(=O)NCC1CC1 [Example 45, 4-(2-(4-Chlorophenyl)-4-oxofuro[3,2-c]pyridin-5(4H)-yl)-N-(cyclopropylmethyl)-2-methoxybenzamide]
74%	–	CCc1cc(-n2ccc3oc(-c4ccc(Cl)cc4)cc3c2=O)ccc1OCC1(C#N)CC1 [Example 47, 1-((4-(2-(4-Chlorophenyl)-4-oxofuro[3,2-c]pyridin-5(4H)-yl)-2-ethylphenoxy)methyl)cyclopropanecarbonitrile]
71%	–	CCC1(COc2ccc(-n3ccc4oc(-c5ccc(Cl)cc5)cc4c3=O)cc2OC)COC1 [Example 48, 2-(4-Chlorophenyl)-5-(4-((3-ethyloxetan-3-yl)methoxy)-3-methoxyphenyl)furo[3,2-c]pyridin-4(5H)-one]
85%	–	COc1cc(-n2ccc3oc(-c4ccc(Cl)cc4)cc3c2=O)ccc1OCC(N)=O [Example 50, 2-(4-(2-(4-Chlorophenyl)-4-oxofuro[3,2-c]pyridin-5(4H)-yl)-2-methoxyphenoxy)acetamide]
90%	–	COc1cc(-n2ccc3oc(-c4ccc(Cl)cc4)cc3c2=O)ccc1OCCCC(N)=O [Example 51, 4-(4-(2-(4-Chlorophenyl)-4-oxofuro[3,2-c]pyridin-5(4H)-yl)-2-methoxyphenoxy)butanamide]
